Counter-ions that a name gives are not always drawn.
Assays:
Format in all cases: physicochemical
[1] = Moisture sorption/desorption studies (hygrostat, storage at different temperatures and relative humidity); details: for water content (Table V): 11.2% RH, % on the weight of compound 1a
Procedure: The determination of the sorption isotherms was carried out in a hygrostat.
At suitable intervals, the sample was weighed by means of a sample balance. The atmosphere in the hygrostat and therefore around the sample of compound 1a (1b) and 2a (2b) was conditioned and kept by a saturated solutions of a suitable salt:
Na Cl saturated solution 75.3% RH/25° C. 74.8% RH/37° C.
KNO3 saturated solution 93.7% RH/25° C. 90.0% RH/37° C.
At the end of the experiment, after completing the hysteresis, that is the adsorption--desorption cycle of humidity, the compound was assayed for the title and degradation products by TLC and HPLC, the physical state by DSC and water content by TGA.

[2] = Moisture content during tablet manufacturing (mixing and tableting); details: hydrochloride monohydrate; for Moisture content: % on the weight of compound 1a
Text: As a consequence, storage of compound 2a may be effected in normal conditions and no particular precautions are needed to avoid exposure to moisture. The titer of compound 2a, when it is stored in normal conditions, is therefore maintained at difference with compound 1a which, in the same conditions, may show different titles according to the water content. The hygroscopicity may also influence the drug title immediately after the manufacturing of tablets. In fact during the process of manufacturing the drug exposed at normal ambient conditions where it can take up moisture.

[3] = Milling studies (FRITSCH Pulverisette 14 Rotor Speed Mill)
Procedure: The milling process was performed by the FRITSCH Pulverisette 14 Rotor Speed Mill supplied with circular sieve stainless steel with trapezoidal 0.080 mm diameter openings. The samples were passed through the mill twice at 20.000 rpm motor speed. The sample is assayed for title and degradation products by TLC and HPLC, physical state by DSC, water content by TGA, particle size distribution by Mercury Instrusion Porosimetry. The mi 11ed compounds are formulated in capsules and tablets at very low dose level (0.5 mg) by direct mixing and direct compression manufacturing method, respectively.

[4] = Accelerated stability tests in tablets and capsules; details: for % degradation: tablets and capsules in PVC/PVDC blister with aluminium foil, hydrochloride monohydrate
Text: (§1) Drug stability in these final compositions may be measured in accelerated stability tests or in long term real time stability tests. In accelerated stability tests, the above pharmaceutical compositions are exposed at high temperatures at different degrees of relative humidity for a period of time. Such tests are considered to be indicative of the stability of the composition at normal conditions. In long term real time stability studies the final compositions are exposed to normal conditions of storage at ambient temperatures at different degrees of relative humidity.
(*)according to H. Leven Berger Pharm. Act. Helv. 50 (1975) 88-91 it is
equivalent to 2 years storage at room temperature. Tablets and capsules
are packaged in PVC/PVDC blister with aluminium foil.
(*)according to "Guidelines for stability studies for Human Drugs and
Biologics" (1987) (USA/FDA) it is equivalent to 2 years at room
temperature. Tablets and capsules are packaged in PVC/PVDC blister with […]

[5] = Long-term real time stability tests in tablets and capsules; details: for % degradation: tablets and capsules in PVC/PVDC blister with aluminium foil, hydrochloride monohydrate
Text: as §1
Tablets and capsules are packaged in PVC/PVDC blister with aluminium foil

[6] = Water loss on desiccation under vacuum; details: between room temperature and 60° C. under vacuum, most preferably 40° C., 0.1 mm Hg, 24 hours; in words
Procedure: Compounds 2a and 2b may be prepared by dissolving the compounds 1a and 1b, as free base, in a hot aqueous solvent, preferably a hot aqueous alkanol, by adding the required amount of gaseous hydrogen chloride, filtering the resulting solution and letting it cool to room temperature. In a preferred embodiment of the process according to the invention, compound 2a is prepared by using, as an hot aqueous alkanol, hot 85% aqueous ethanol. The crystals of compound 2a may be collected by vacuum filtration and are washed with a small amount of aqueous ethanol. In a preferred embodiment of the process according to the invention, compound 2b is prepared by using, as an hot aqueous alkanol, hot 95% aqueous isopropanol. The crystals of compound 2b may be collected by vacuum filtration and are washed with a small amount of aqueous isopropanol. […] Water content may be measured by usual techniques such as the Karl Fischer test. Alternatively, compounds 2a and 2b may be conveniently prepared by dissolving the anhydrous form of compounds 1a and 1b, as hydrochloride, in hot aqueous ethanol, preferably 85% ethanol (respectively in hot aqueous isopropanol, preferably 95% isopropanol) and allowing to cool the solution at room temperature; crystals of compound 2 a (respectively 2b), separated from the cooled solution, are collected by vacuum filtration and manipulated as previously described. […]

In the case of CN1C2CCC1CC(NC(=O)n1c(=O)[nH]c3ccccc31)C2 (stereo not drawn) [Compound 2a, Endo-2,3-dihydro-N-(8-methyl-8-azabicyclo[3.2.1]oct-3-yl)-2-oxo-1H-benzimidazole-1-carboxamide, hydrochloride monohydrate], the “water content in conditions of extreme dryness” value ([1]; 11 RH, 37° C., in words) is reported as “not affected”, the “water content (Table V)” value ([1]; 37° C., 2 h) is reported as 5.32% and the “water content (Table V)” value ([1]; 37° C., 4 h) is reported as 5.31%. For the same compound, the “water content (Table V)” value ([1]; 37° C., 6 h) was 5.31%, the “water content (Table V)” value ([1]; 37° C., 21 days) was 5.29% and the “water content (Table V)” value ([1]; 37° C., time 0) was 5.26%. For the same compound, the water content (Table III) ([1]; 37° C., 75% RH, 2 h, hydrochloride monohydrate) was 5.8%, the water content (Table III) ([1]; 37° C., 75% RH, 4 h, hydrochloride monohydrate) was 5.75% and the water content (Table III) ([1]; 37° C., 75% RH, 6 h, hydrochloride monohydrate) was 5.79%. The water content (Table III) ([1]; 37° C., 75% RH, 1 d, hydrochloride monohydrate) was 5.75%, the water content (Table III) ([1]; 37° C., 75% RH, 5 d, hydrochloride monohydrate) was 5.8% and the water content (Table III) ([1]; 37° C., 75% RH, 9 d, hydrochloride monohydrate) was 5.76%. The water content (Table III) ([1]; 37° C., 75% RH, 15 d, hydrochloride monohydrate) was 5.8%, the water content (Table III) ([1]; 37° C., 94% RH, 2 h, hydrochloride monohydrate) was 5.49% and the water content (Table III) ([1]; 37° C., 94% RH, 4 h, hydrochloride monohydrate) was 5.47%. For the same compound, the water content (Table III) ([1]; 37° C., 94% RH, 6 h, hydrochloride monohydrate) was 5.53%, the water content (Table III) ([1]; 37° C., 94% RH, 1 d, hydrochloride monohydrate) was 5.5% and the water content (Table III) ([1]; 37° C., 94% RH, 5 d, hydrochloride monohydrate) was 5.49%. For the same compound, the water content (Table III) ([1]; 37° C., 94% RH, 9 d, hydrochloride monohydrate) was 5.48%, the water content (Table III) ([1]; 37° C., 94% RH, 15 d, hydrochloride monohydrate) was 5.48% and the water content (Table III) ([1]; Room Temperature, 75% RH, 2 h, hydrochloride monohydrate) was 5.46%. It also gave a water content (Table III) ([1]; Room Temperature, 75% RH, 4 h, hydrochloride monohydrate) of 5.43%, a water content (Table III) ([1]; Room Temperature, 75% RH, 6 h, hydrochloride monohydrate) of 5.37% and a water content (Table III) ([1]; Room Temperature, 75% RH, 1 d, hydrochloride monohydrate) of 5.41%. It also gave a water content (Table III) ([1]; Room Temperature, 75% RH, 4 d, hydrochloride monohydrate) of 5.42%, a water content (Table III) ([1]; Room Temperature, 75% RH, 8 d, hydrochloride monohydrate) of 5.36% and a water content (Table III) ([1]; Room Temperature, 75% RH, 20 d, hydrochloride monohydrate) of 5.41%. For the same compound, the water content (Table III) ([1]; Room Temperature, 94% RH, 2 h, hydrochloride monohydrate) was 5.49%, the water content (Table III) ([1]; Room Temperature, 94% RH, 4 h, hydrochloride monohydrate) was 5.53% and the water content (Table III) ([1]; Room Temperature, 94% RH, 6 h, hydrochloride monohydrate) was 5.51%. It also gave a water content (Table III) ([1]; Room Temperature, 94% RH, 1 d, hydrochloride monohydrate) of 5.49%, a water content (Table III) ([1]; Room Temperature, 94% RH, 4 d, hydrochloride monohydrate) of 5.44% and a water content (Table III) ([1]; Room Temperature, 94% RH, 8 d, hydrochloride monohydrate) of 5.48%. The water content (Table III) ([1]; Room Temperature, 94% RH, 20 d, hydrochloride monohydrate) was 5.49%, the “stability in condition of storage” value ([1]; different temperatures and relative humidity, in words) was “stable” and the moisture absorption ([1]; different temperatures and relative humidity, in words, hydrochloride monohydrate) was “do not absorb moisture”. For the same compound, the Moisture content ([2]; Final (b), tableting) was 4.90%, the Moisture content ([2]; Intermediate (a), mixing) was 4.90% and the Moisture content ([2]; Start) was 4.90%. For the same compound, the “water content during manufacturing” value ([2]; mixing (a) and tableting (b) phases, in words) was “stable water content”, the “particle size reduction (milling efficiency)” value ([3]; Mercury Porosimetry Analysis, in words) was “same rank order” and the stability to milling ([3]; in words, in comparison with the anhydrous form) was “unexpected better stability to milling”. For the same compound, the “percentage of degradation products after milling” value ([3]; rotor speed of 20,000 rpm, hydrochloride monohydrate) was 0.0%, the “% degradation” value ([4]; 1 month/55° C., 43200 min) was 0.5% and the “% degradation” value ([4]; 3 months/40° C.-75% RH, 129600 min) was 0.5%. The “% degradation” value ([4]; 3 months/55° C., 129600 min) was 1.6%, the “% degradation” value ([4]; 6 months/40° C.-75% RH, 259200 min) was 1.0% and the “stability in tablets and capsules” value ([4]; accelerated tests, in comparison with compounds 1a and 1b, in words) was “better stability”. For the same compound, the “% degradation” value ([5]; 3 months/40° C., 129600 min) was 0.4%, the “% degradation” value ([5]; 6 months/30° C.-70% RH, 259200 min) was 0.1% and the “% degradation” value ([5]; 6 months/40° C., 259200 min) was 0.6%. For the same compound, the “stability in tablets and capsules” value ([5]; long term real time tests, in comparison with compounds 1a and 1b, in words) was “better stability” and the “loss of water content on desiccation” value [6] was “without any appreciable loss of water content”.
